Experimental data from patent US11807627B2, “Morphic forms of complement factor D inhibitors” (priority 2018, dated 2023).

What was measured:
Type in all cases: physicochemical
[1] = Variable humidity XRPD (VH-XRPD); settings: between 0 and 90% RH
Protocol: […] analysis was carried out on a Philips X'Pert Pro Multipurpose diffractometer equipped with a humidity chamber. The samples were scanned between 4 and 35.99°2θ using Cu K radiation (α1λ=1.54060 Å; α2=1.54443 Å; β=1.39225 Å; α1; α2 ratio=0.5) running in Bragg-Brentano geometry (step size 0.008°2θ) using 40 kV/40 mA generator settings. Table 10 details the humidity program used.

Milling of Form A = settings: 2 min milling (5000 RPM); initial and repeat runs
Protocol: Compound 3 Form A material was milled using a Precellys® Evolution SUPER Homogenizer. Approximately 50 mg of Compound 3 Form A was weighed into 2×plastic 2 mL bead mill vials and 5×2.4 […] metal beads were placed into each vial. Sample 1 was milled using the following: RPM=5000; Cycles=2×60 seconds; Pause=10 seconds (between cycles). Sample 2 was milled using the above method but 5×60 seconds cycles instead of2×60 seconds. After milling, a sub-sample was taken from each and analyzed by XRPD and PLM. The above procedure was repeated and the resulting samples were analyzed by XRPD and DSC analysis.

[2] = Storage stability of Compound 3 forms (80° C., 40° C./75% RH, 25° C./60% RH, ambient)
[3] = Polymorph study: anti-solvent addition
Protocol: Anti-solvent additions were completed on saturated solutions of Compound 3 produced from temperature cycling experiments. Precipitation of solids was observed (before anti-solvent additions were completed) from selected solvent systems when storage under ambient conditions. Precipitated solids were analyzed by XRPD and re-dissolved using gentle heating and addition of minimal solvent. An appropriate anti-solvent was added to each saturated solution in 50μL aliquots until precipitation was observed or a total of 1 mL anti-solvent had been added. Samples where solids were precipitated were isolated using centrifuge filtration and analyzed by XRPD. […] Samples where solids had precipitated were isolated using centrifuge filtration and analyzed by XRPD (Table 20A and Table 20B).

[4] = Polymorph study: evaporation
Protocol: Saturated solutions of Compound 3 produced from temperature cycling experiments were evaporated under ambient conditions. After approximately 4 days, observations were made, and solids recovered were analyzed by XRPD (Table 21).

[5] = Polarized light microscopy (PLM); settings: Table 27A
Protocol: The presence of crystallinity (birefringence) was determined using an Olympus BX50 microscope, equipped with cross-polarizing lenses and a Motic camera. Images were captured using Motic Images Plus 2.0. All images were recorded using the 20×objective, unless otherwise stated. All samples were prepared using silicone oil and covered with a cover slip before PLM analysis was completed.

[6] = X-ray powder diffraction (XRPD); settings: Table 27A
Protocol: Most XRPD patterns were collected with a PANalytical X′Pert PRO MPD diffractometer using an incident beam of Cu Kα radiation produced using a long, fine-focus source and a nickel filter. The diffractometer was configured using the symmetric Bragg-Brentano geometry. Prior to the analysis, a silicon specimen (NIST SRM 640e) was analyzed to verify the observed position of the Si 111 peak is consistent with the NIST-certified position. A specimen of the sample was prepared as a thin, circular layer centered on a silicon zero-background substrate. Antiscatter slits (SS) were used to minimize the background generated by air. Soller slits for the incident and diffracted beams were used to minimize broadening from axial divergence. Diffraction patterns were collected using a scanning position-sensitive detector (X′Celerator) located 240 mm from the sample and Data Collector software v. 2.2b.
A few XRPD patterns were collected with a PANalytical X′Pert PRO MPD diffractometer using an incident beam of Cu radiation produced using an Optix long, fine-focus source. […] Prior to the analysis, a silicon specimen (NIST SRM 640e) was analyzed to verify the observed position of the Si 111 peak is consistent with the NIST-certified position. A specimen of the sample was sandwiched between 3-μm-thick films and analyzed in transmission geometry. […]

[7] = 50% 2-Propanol / 50% Heptane (% v/v)
[8] = 70% 2-Propanol / 30% Heptane (% v/v)
[9] = 70% 2-Propanol / 30% Water (% v/v) aw = 0.8
[10] = 95% Heptane / 5% 2-Propanol (% v/v)
[11] = 95% Methanol / 5% Water (% v/v) calc. aw = 0.2

CC(=O)c1nn(CC(=O)N2[C@H](C(=O)Nc3nc(Br)ccc3C)C[C@@]3(C)C[C@@H]23)c2ccc(-c3cnc(C)nc3)cc12 [Compound 3 Form A]
weakly crystalline Form A: Stability: form by XRPD after storage ([2]; 25° C./60% RH, uncapped vial)
WC Form A: 1 week stability: 25° C./60% RH XRPD (uncapped) ([2]; 1 week, WC = weakly crystalline)
Amorphous: Milling: XRPD (Milling of Form A)
no changes in form: VH-XRPD: change in form with humidity [1]

CC(=O)c1nn(CC(=O)N2[C@H](C(=O)Nc3nc(Br)ccc3C)C[C@@]3(C)C[C@@H]23)c2ccc(-c3cnc(C)nc3)cc12 [Compound 3, (1R,3S,5R)-2-(2-(3-acetyl-5-(2-methylpyrimidin-5-yl)-1H-indazol-1-yl)acetyl)-N-(6-bromo-3-methylpyridin-2-yl)-5-methyl-2-azabicyclo[3.1.0]hexane-3-carboxamide]
Amorphous: XRPD analysis after re- dissolution and storage at 4° C. for ca. 48 hours ([3]; Ethyl Acetate (dry)) | Crystallization technique: Anti-solvent Additions ([3]; Toluene) | Crystallization technique: Evaporations ([4]; 1-Butanol) | Crystallization technique: Evaporations ([4]; 2-Propanol) | Crystallization technique: Evaporations ([4]; 40% Ethanol / 60% Water (% v/v) calc. aw = 0.7) | Crystallization technique: Evaporations [4, 7] | Crystallization technique: Evaporations ([4]; 50% Acetonitrile / 50% Water (% v/v) calc. aw = 0.9) | Crystallization technique: Evaporations ([4]; 50% Ethanol / 50% Heptane (% v/v)) | Crystallization technique: Evaporations [4, 9] | Crystallization technique: Evaporations [4, 10] | Crystallization technique: Evaporations [4, 11] | Crystallization technique: Evaporations ([4]; Acetonitrile) | Crystallization technique: Evaporations ([4]; Ethyl Acetate (dry)) | Crystallization technique: Evaporations ([4]; Methanol) | Crystallization technique: Evaporations ([4]; Methylethyl Ketone) | Crystallization technique: Evaporations ([4]; Methylisobutyl Ketone) | Crystallization technique: Evaporations ([4]; Toluene) | Crystallization technique: Evaporations ([4]; n-Heptane)
Form A: XRPD analysis after re- dissolution and storage at 4° C. for ca. 48 hours ([3]; 2-Propanol) | XRPD analysis after re- dissolution and storage at 4° C. for ca. 48 hours ([3]; 50% Ethanol:50% Heptane (% v/v)) | XRPD analysis after re- dissolution and storage at 4° C. for ca. 48 hours ([3]; 95% 2-Propanol / 5% Heptane (% v/v)) | XRPD analysis after re- dissolution and storage at 4° C. for ca. 48 hours ([3]; Acetone) | XRPD analysis after re- dissolution and storage at 4° C. for ca. 48 hours ([3]; Ethanol) | Crystallization technique: Anti-solvent Additions ([3]; Methylethyl Ketone) | Crystallization technique: Anti-solvent Additions ([3]; Tetrahydrofuran)
White solid: Observations after storage in the fridge for ca. 48 hours ([3]; Ethyl Acetate (dry))
Form A*: Crystallization technique: Anti-solvent Additions ([3]; 2-Propanol, *solids that precipitated under ambient conditions) | Crystallization technique: Anti-solvent Additions ([3]; 50% Ethanol / 50% Heptane (% v/v), *solids that precipitated under ambient conditions) | Crystallization technique: Anti-solvent Additions ([3]; 95% 2-Propanol / 5% Heptane (% v/v), *solids that precipitated under ambient conditions) | Crystallization technique: Anti-solvent Additions ([3]; Acetone, *solids that precipitated under ambient conditions) | Crystallization technique: Anti-solvent Additions ([3]; Ethanol, *solids that precipitated under ambient conditions) | Crystallization technique: Anti-solvent Additions ([3]; Ethyl Acetate (dry), *solids that precipitated under ambient conditions)
WC (Pattern E): Crystallization technique: Evaporations ([4]; tert-Butylmethyl Ether, WC = weakly crystalline)
Mixture L + M*: Crystallization technique: Anti-solvent Additions ([3]; 40% Ethanol / 60% Water (% v/v) calc. aw = 0.7, *solids that precipitated under ambient conditions) | Crystallization technique: Anti-solvent Additions ([3]; 70% 2-Propanol / 30% Heptane (% v/v), *solids that precipitated under ambient conditions)
Form A (WC) *: Crystallization technique: Anti-solvent Additions ([3]; 1-Butanol, *solids that precipitated under ambient conditions, WC = weakly crystalline) | Crystallization technique: Anti-solvent Additions ([3]; 50% 2-Propanol / 50% Heptane (% v/v), *solids that precipitated under ambient conditions, WC = weakly crystalline)
Clear solution: Observation after re-dissolution and anti-solvent addition [3, 7] | Observations after storage in the fridge for ca. 48 hours [3, 7] | Observation after re-dissolution and anti-solvent addition [3, 8] | Observations after storage in the fridge for ca. 48 hours [3, 8] | Observations after storage in the fridge for ca. 48 hours ([3]; 70% 2-Propanol / 30% Heptane (% v/v) re-prepared sample) | Crystallization technique: Anti-solvent Additions [3, 9] | Observations after storage in the fridge for ca. 48 hours [3, 9] | Observations after storage in the fridge for ca. 48 hours [3, 10] | Crystallization technique: Anti-solvent Additions [3, 11] | Observations after storage in the fridge for ca. 48 hours ([3]; 95% Methanol:5% Water (% v/v) calc. aw = 0.2) | Observations after storage in the fridge for ca. 48 hours ([3]; Acetonitrile) | Crystallization technique: Anti-solvent Additions ([3]; Methanol) | Observations after storage in the fridge for ca. 48 hours ([3]; Methanol) | Crystallization technique: Anti-solvent Additions ([3]; n-Heptane)
WC Form A: XRPD analysis after re- dissolution and storage at 4° C. for ca. 48 hours ([3]; 1-Butanol, WC = weakly crystalline)
Form B: Crystallization technique: Anti-solvent Additions ([3]; Methylisobutyl Ketone)
Form A (WC): Crystallization technique: Evaporations ([4]; 2-Methyl Tetrahydrofuran, WC = weakly crystalline) | Crystallization technique: Evaporations ([4]; 95% 2-Propanol / 5% Heptane (% v/v), WC = weakly crystalline) | Crystallization technique: Evaporations ([4]; Acetone, WC = weakly crystalline) | Crystallization technique: Evaporations ([4]; Ethanol, WC = weakly crystalline)

CC(=O)c1nn(CC(=O)N2[C@H](C(=O)Nc3nc(Br)ccc3C)C[C@@]3(C)C[C@@H]23)c2ccc(-c3cnc(C)nc3)cc12 [Form B]
Form B: XRPD [6]
Birefringent rods: PLM [5]
